Assay results as given in US9962331B2, “Composition containing horse chestnut extract” (priority 2001, dated 2018).
Like-named read-outs stand apart in the source and are kept apart here.

Tested on: human umbilical vein endothelial cells (HUVECs)
Test: Tube formation assay of HUVEC on Matrigel
Format: cell-based
Conditions: for formation of microvascular network of HUVEC (pictures): FIGS. 6-9; for inhibition at 50 µM: Homo sapiens, read-out: Percent Inhibition
Description: In order to do the tube formation assay, blood vessel endothelial cells, human umbilical vein endothelial cells (HUVECs), were isolated from freshly obtained cords after cesarean section according to Grant's method (Grants D S, et al., Cell, 58, pp933-943, 1989). They were identified by immunocytochemial staining with anti-Factor VIII antibody. HUVECs grown with Matrigel (BD Bioscience, Bedford, Mass., USA), were treated with the above Horse chestnut extract of the Example 1, and further incubated at 37° C. for 8-16 hrs. As a control, above procedure was repeated without Horse chestnut extract.
In order to identify the component responsible for anti-aniogenic acvity of Horse chestnut extract, components identified as in EXAMPLE 2, were subjected to the tube formation assay as described above. Since those chemicals are not soluble in water, they were dissolved in dimethyl sulfoxide (DMSO). In order to exclude the effect of solvent, HUVECs treated with the same amount of DMSO were used as a control. FIG. 5 is a picture of the 1% DMSO-treated HUVEC control, and FIGS. 6-9 are pictures showing the effect of individual components of the Horse chestnut on tube formation. […] Tubular network was disconnected by treatment with 50 μM of quercitrin, and esculetin.
The area of the tube was determined by image analysis program Image-Pro Plus® (Media Cybernetics, USA), and the results were summarized in Tables 1 and 2. […]

[1] = HUVEC tube formation, 50 μM, vs 1% DMSO control
[2] = HUVEC, 50 μM, vs 1% DMSO control

Row | Compound | formation of microvascular network of HUVEC (pictures) (50 μM) | Percent Inhibition [1] | Area of the Tube (%) [2] | inhibition at 50 µM (HUVEC) | inhibition at 50 µM [1]
1 | aescin | completely inhibited | 100 | 0% | – | –
2 | C[C@@H]1O[C@@H](Oc2c(-c3ccc(O)c(O)c3)oc3cc(O)cc(O)c3c2=O)[C@H](O)[C@H](O)[C@H]1O [Quercitrin, quercitrin] | – | – | 36% | 64% | –
3 | O=c1ccc2cc(O)c(O)cc2o1 [Esculetin, esculetin] | disconnected | – | 17% | – | 83%
4 | O=c1ccc2cc(O[C@@H]3O[C@H](CO)[C@@H](O)[C@H](O)[C@H]3O)c(O)cc2o1 [Esculin, esculin] | less than that by esculetin | – | 85% | 15% | –
